Test results as given in ChEMBL document CHEMBL5518179, “Resveratrol-derived inhibitors of the E3 ubiquitin ligase PELI1 inhibit the metastasis of triple-negative breast cancer” (Eur J Med Chem, 2024).

Target: T1, E3 ubiquitin-protein ligase pellino homolog 1 (Homo sapiens, UniProt Q96FA3)
T1 sequence (Q96FA3 whole entry): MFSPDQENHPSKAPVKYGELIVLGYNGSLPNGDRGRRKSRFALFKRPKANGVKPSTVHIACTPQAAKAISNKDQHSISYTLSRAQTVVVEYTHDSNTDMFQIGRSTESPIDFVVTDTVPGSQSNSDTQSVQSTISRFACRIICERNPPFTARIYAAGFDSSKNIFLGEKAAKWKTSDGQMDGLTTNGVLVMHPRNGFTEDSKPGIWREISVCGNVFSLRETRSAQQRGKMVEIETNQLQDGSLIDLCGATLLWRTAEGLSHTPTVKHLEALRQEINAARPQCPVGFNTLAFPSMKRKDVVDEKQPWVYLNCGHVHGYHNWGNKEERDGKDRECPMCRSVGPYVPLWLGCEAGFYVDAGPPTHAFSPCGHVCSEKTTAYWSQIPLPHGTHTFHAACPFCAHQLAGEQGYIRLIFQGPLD
Experiment: Binding affinity to PELI1 FHA domain (unknown origin) expressed in Escherichia coli BL21(DE3) competent cell measured after 1 min by fluorescence quenching assay; call rule not given here

CNC(=O)/C=C/c1ccccc1
Kd (read-out: Kd): 212 µM

CNC(=O)/C=C/c1ccc(O)c(/C=C/c2cc(O)cc(O)c2)c1
Kd (read-out: Kd): 59.9 µM

CNC(=O)/C=C/c1ccc(/C=C/c2cc(O)cc(O)c2)cc1
Kd: Not Active

NC(=O)/C=C/c1ccc(O)c(/C=C/c2cc(O)cc(O)c2)c1
Kd (read-out: Kd): 55.7 µM

O=C(/C=C/c1cc(/C=C/c2cc(O)cc(O)c2)ccc1O)N1CCCCC1
Kd (read-out: Kd): 37.9 µM

Oc1cc(O)cc(/C=C/c2ccc(-c3ccsc3)cc2)c1
Kd: Not Active

CNC(=O)/C=C/c1cc(/C=C/c2cc(O)cc(O)c2)ccc1O
Kd (read-out: Kd): 42.3 µM

Oc1ccc(-c2ccc(/C=C/c3cc(O)cc(O)c3)cc2)cc1
Kd: Not Active

O=[N+]([O-])c1cccc(-c2ccc(/C=C/c3cc(O)cc(O)c3)cc2)c1
Kd: Not Active

O=C(/C=C/c1ccc(/C=C/c2cc(O)cc(O)c2)cc1)N1CCCCC1
Kd: Not Active

O=C(/C=C/c1ccccc1)Nc1cc(/C=C/c2cc(O)cc(O)c2)ccc1O
Kd (read-out: Kd): 124 µM

O=C(/C=C/c1ccccc1)Nc1ccc(O)c(/C=C/c2cc(O)cc(O)c2)c1
Kd: Not Active

C/C=C/C(=O)Nc1cc(/C=C/c2cc(O)cc(O)c2)ccc1O
Kd (read-out: Kd): 126 µM

O=C(/C=C/c1ccccc1)Nc1ccc(/C=C/c2cc(O)cc(O)c2)cc1
Kd: Not Active

O=C(/C=C/c1ccc(O)c(/C=C/c2cc(O)cc(O)c2)c1)N1CCCCC1
Kd (read-out: Kd): 26.9 µM

C/C=C/C(=O)Nc1ccc(/C=C/c2cc(O)cc(O)c2)cc1
Kd: Not Active

CN(C)C(=O)/C=C/c1ccc(/C=C/c2cc(O)cc(O)c2)cc1
Kd: Not Active

CCCNC(=O)/C=C/c1ccc(/C=C/c2cc(O)cc(O)c2)cc1
Kd: Not Active

NC(=O)/C=C/c1ccc(/C=C/c2cc(O)cc(O)c2)cc1
Kd: Not Active

CCCNC(=O)/C=C/c1cc(/C=C/c2cc(O)cc(O)c2)ccc1O
Kd (read-out: Kd): 44.4 µM

Oc1cc(O)cc(/C=C/c2ccc(-c3ccoc3)cc2)c1
Kd: Not Active

C/C=C/C(=O)Nc1ccc(O)c(/C=C/c2cc(O)cc(O)c2)c1
Kd (read-out: Kd): 64.3 µM

Oc1cc(O)cc(/C=C/c2ccc(-c3ccccc3)cc2)c1
Kd: Not Active

Oc1cc(O)cc(/C=C/c2ccc(-c3cccc(O)c3)cc2)c1
Kd: Not Active

O=C(/C=C/c1ccccc1)Nc1cc(O)ccc1/C=C/c1cc(O)cc(O)c1
Kd (read-out: Kd): 51.5 µM

C/C=C/C(=O)Nc1cc(O)ccc1/C=C/c1cc(O)cc(O)c1
Kd (read-out: Kd): 86.9 µM

CN(C)C(=O)/C=C/c1cc(O)ccc1/C=C/c1cc(O)cc(O)c1
Kd (read-out: Kd): 104 µM

NC(=O)/C=C/c1cc(O)ccc1/C=C/c1cc(O)cc(O)c1
Kd (read-out: Kd): 40.1 µM

O=C(/C=C/c1cc(O)ccc1/C=C/c1cc(O)cc(O)c1)N1CCCCC1
Kd (read-out: Kd): 96.3 µM

CNC(=O)/C=C/c1cc(O)ccc1/C=C/c1cc(O)cc(O)c1
Kd (read-out: Kd): 39.3 µM

CCCNC(=O)/C=C/c1cc(O)ccc1/C=C/c1cc(O)cc(O)c1
Kd (read-out: Kd): 70.1 µM

O=c1ccc2ccc(O)c(O)c2o1 [DAPHNETIN]
Kd (read-out: Kd): 336 µM

O=C(Nc1ccccc1)c1cccnc1 [NICOTINANILIDE]
Kd (read-out: Kd): 336 µM

Oc1ccc(/C=C/c2cc(O)cc(O)c2)cc1 [RESVERATROL]
Kd (read-out: Kd): 125 µM

COc1cc(C=O)ccc1O [VANILLIN]
Kd (read-out: Kd): 228 µM
